The results in this text go back to patent US20230382925A1, “MODULATORS OF CYSTIC FIBROSIS TRANSMEMBRANE CONDUCTANCE REGULATOR” (VERTEX PHARMACEUTICALS INCORPORATED, priority 2020, published 2023).

Read-outs that look alike come from different tables or passages of the source.

The assay addresses CFTR (Homo sapiens, UniProt P13569). In words: Membrane Potential Dye, Enteroid Assay B. Format: cell-based. The method in brief: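 Human intestinal enteroid cells exposed to compound 18-24 h at 37 °C, then loaded with methyl oxonol membrane-potential dye plus CaCC blockers. Chloride transport triggered in chloride-free buffer with 10 μM forskolin, 100 μM IBMX, 300 nM Compound III; fluorescence read 15 min, expressed as % of triple-corrector/potentiator combination control.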

Where [1] appears, read: Table 10, read-out: Ent. B EC50.

Sequence of CFTR (P13569 with tags, fused parts or gaps DEL508-508): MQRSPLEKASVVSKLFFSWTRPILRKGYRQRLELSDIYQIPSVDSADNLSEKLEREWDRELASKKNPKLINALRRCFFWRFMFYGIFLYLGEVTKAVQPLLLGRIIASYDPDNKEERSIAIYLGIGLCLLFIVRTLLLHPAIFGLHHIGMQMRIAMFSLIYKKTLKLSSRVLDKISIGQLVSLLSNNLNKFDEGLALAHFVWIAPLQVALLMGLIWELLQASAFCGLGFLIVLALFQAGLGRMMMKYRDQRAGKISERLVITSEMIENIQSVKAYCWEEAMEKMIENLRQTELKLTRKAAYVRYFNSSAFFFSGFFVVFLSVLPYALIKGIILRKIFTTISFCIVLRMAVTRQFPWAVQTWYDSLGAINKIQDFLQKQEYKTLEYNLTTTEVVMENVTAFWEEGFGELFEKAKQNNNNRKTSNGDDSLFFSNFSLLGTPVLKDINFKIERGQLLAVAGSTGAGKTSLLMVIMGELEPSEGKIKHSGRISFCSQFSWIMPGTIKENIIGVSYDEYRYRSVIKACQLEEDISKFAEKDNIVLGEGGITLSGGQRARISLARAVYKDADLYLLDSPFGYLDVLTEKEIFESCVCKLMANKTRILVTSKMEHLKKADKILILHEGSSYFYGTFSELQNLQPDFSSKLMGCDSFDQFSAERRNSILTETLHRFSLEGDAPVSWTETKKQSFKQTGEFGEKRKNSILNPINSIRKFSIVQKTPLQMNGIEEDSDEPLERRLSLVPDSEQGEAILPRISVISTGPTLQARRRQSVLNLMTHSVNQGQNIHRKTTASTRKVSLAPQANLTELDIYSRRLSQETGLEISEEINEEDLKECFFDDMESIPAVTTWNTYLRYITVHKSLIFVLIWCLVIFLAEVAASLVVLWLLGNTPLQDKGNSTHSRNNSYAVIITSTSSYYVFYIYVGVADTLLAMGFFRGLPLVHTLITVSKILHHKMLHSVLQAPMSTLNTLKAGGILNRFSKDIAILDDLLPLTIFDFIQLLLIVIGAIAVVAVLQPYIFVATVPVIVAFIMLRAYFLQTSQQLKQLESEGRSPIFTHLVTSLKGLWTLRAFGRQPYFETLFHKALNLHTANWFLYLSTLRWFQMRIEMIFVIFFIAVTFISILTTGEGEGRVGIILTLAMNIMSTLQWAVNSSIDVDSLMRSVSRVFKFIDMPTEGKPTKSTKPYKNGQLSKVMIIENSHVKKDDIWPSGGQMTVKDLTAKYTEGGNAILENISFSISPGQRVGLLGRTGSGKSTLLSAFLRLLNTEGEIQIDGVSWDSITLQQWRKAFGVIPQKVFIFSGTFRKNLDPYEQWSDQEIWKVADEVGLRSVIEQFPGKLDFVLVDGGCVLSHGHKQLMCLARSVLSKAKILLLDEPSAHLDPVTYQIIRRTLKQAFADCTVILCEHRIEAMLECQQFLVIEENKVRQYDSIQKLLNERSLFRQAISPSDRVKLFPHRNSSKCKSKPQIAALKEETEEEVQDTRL

Take `Cc1cccc(C)c1-c1cc2nc(n1)NS(=O)(=O)c1cccc(c1)C(=O)N(C1CC(NC(=O)OC(C)C)C1)[C@H](CC(C)(C)C)CO2` (stereo in doubt) [Compound 451]: for the setting “Table 9”, the “Ent. B Max Activity (%)” value was “+++ (+++ is >60%)”. In addition, the 50% effective concentration (EC50) (as a rule, the concentration that produces a half-maximal response) (Table 9, read-out: Ent. B EC50) is below 1000 nM. As to `COC(=O)N1CCC2(CC1)CC(N1C(=O)c3cccc(c3)S(=O)(=O)Nc3nc(cc(-c4c(C)cccc4C)n3)OC[C@H]1CC1(C(F)(F)F)CC1)C2` [Compound 261], for the setting “Table 9”, the “Ent. B Max Activity (%)” value was “+++ (+++ is >60%)”. Under “Table 9, read-out: Ent. B EC50”, the EC50 was below 1000 nM.

On to `Cc1cccc(C)c1-c1cc2nc(n1)NS(=O)(=O)c1cccc(c1)C(=O)N(C1CC3(CCN(C(=O)[C@@H](C)O)CC3)C1)[C@H](CC(C)C)CO2` [Compound 455], for which the “Ent. B Max Activity (%)” value (Table 9) was “+++ (+++ is >60%)”. Moreover, under “Table 9, read-out: Ent. B EC50”, the EC50 is below 1000 nM.

For `Cc1cccc(C)c1-c1cc2nc(n1)NS(=O)(=O)c1cccc(c1)C(=O)N([C@H]1C[C@@H](OC(C)C)C1)[C@H](CC1(C(F)(F)F)CC1)CO2` (single isomer, unassigned) [Compound 131], the “Ent. B Max Activity (%)” value (Table 9) was “+++ (+++ is >60%)”. Also, under “Table 9, read-out: Ent. B EC50”, the EC50 was below 1000 nM.

Consider `Cc1cccc(C)c1-c1cc2nc(n1)NS(=O)(=O)c1cccc(c1)C(=O)N(C1CC3(COC(=O)N3)C1)[C@H](CC(C)(C)C)CO2` (single isomer, unassigned) [Compound 175], for which, where the note is “Table 10”, the “Ent. B Max Activity (%)” value was “++ (++ is 30-60%)”. Besides, the EC50 under setting [1] was below 1000 nM. In the case of `Cc1cccc(C)c1-c1cc2nc(n1)NS(=O)(=O)c1cccc(c1)C(=O)N(C1CC3(COC(=O)N3)C1)[C@H](CC(C)C)CO2` (stereo partly shown) [Compound 255], the “Ent. B Max Activity (%)” value (Table 10) is “++ (++ is 30-60%)”. The half-maximal effective concentration (EC50) under setting [1] is below 1000 nM.

Turning to `Cc1cccc(C)c1-c1cc2nc(n1)NS(=O)(=O)c1cccc(n1)C(=O)N(C1CC3(CC(C(=O)N(C)C)C3)C1)[C@H](CC(C)(C)C)CO2` (stereo partly shown) [Compound 415], where the note is “Table 10”, the “Ent. B Max Activity (%)” value is given as “+++ (+++ is >60%)”. Under setting [1], the concentration giving a half-maximal response (EC50) was below 1000 nM. As for `CNC(=O)C1CC2(C1)CC(N1C(=O)c3cccc(c3)S(=O)(=O)Nc3nc(cc(-c4c(C)cccc4C)n3)OC[C@H]1CC(C)(C)C)C2` (stereo partly shown) [Compound 234], the “Ent. B Max Activity (%)” value (Table 10) is reported as “+++ (+++ is >60%)”. Further, the concentration for a half-maximal effect (EC50) under setting [1] was below 1000 nM. As to `Cc1cccc(C)c1-c1cc2nc(n1)NS(=O)(=O)c1cccc(c1)C(=O)N(C1CC3(CCN(C(=O)OC(C)C)CC3)C1)[C@H](CC1(C(F)(F)F)CC1)CO2` [Compound 464], the “Ent. B Max Activity (%)” value is listed as “+++ (+++ is >60%)”. In addition, under “read-out: Ent. B EC50”, the EC50 was below 1000 nM. In the same order, the values of `COCCN1CCC2(CC1)CC(N1C(=O)c3cccc(c3)S(=O)(=O)Nc3nc(cc(-c4c(C)cccc4C)n3)OC[C@H]1CC(C)(C)C)C2` [Compound 138, (11R)-6-(2,6-Dimethylphenyl)-11-(2,2-dimethylpropyl)-12-[7-(2-methoxyethyl)-7-azaspiro[3.5]nonan-2-yl]-2,2-dioxo-9-oxa-2λ^6-thia-3,5,12,19-tetrazatricyclo[12.3.1.14,8]nonadeca-1(18),4(19),5,7,14,16-hexaen-13-one] are “+++ (+++ is >60%)” and below 1000 nM. With `Cc1cccc(C)c1-c1cc2nc(n1)NS(=O)(=O)c1cccc(c1)C(=O)N(C1CC(N[C@H]3CC[C@H](CO)CC3)C1)[C@H](CC(C)C)CO2` (stereo partly shown) [Compound 373], for the setting “Table 9”, the “Ent. B Max Activity (%)” value is on record as “+++ (+++ is >60%)”. Moreover, under “Table 9, read-out: Ent. B EC50”, the EC50 was below 1000 nM. For `CC(=O)NCC[C@H]1C[C@@H](N2C(=O)c3cccc(c3)S(=O)(=O)Nc3nc(cc(-c4c(C)cccc4C)n3)OC[C@H]2CC(C)(C)C)C1` (single isomer, unassigned) [Compound 155], under “Table 10”, the “Ent. B Max Activity (%)” value was “+++ (+++ is >60%)”. Besides, the EC50 under setting [1] was below 1000 nM.

As to `Cc1cccc(C)c1-c1cc2nc(n1)NS(=O)(=O)c1cccc(c1)C(=O)N(C1CC3(CC(N(C)C)C3)C1)[C@H](CC(C)(C)C)CO2` (stereo partly shown) [Compound 461], the “Ent. B Max Activity (%)” value (Table 9) is “+++ (+++ is >60%)”. For the same compound, the half-maximal effective concentration (EC50) (Table 9, read-out: Ent. B EC50) was below 1000 nM. For the compound `Cc1cccc(C)c1-c1cc2nc(n1)NS(=O)(=O)c1cccc(c1)C(=O)N(C1CC3(CCN(CCOC(C)C)CC3)C1)[C@H](CC(C)(C)C)CO2` [Compound 215], the “Ent. B Max Activity (%)” value was “+++ (+++ is >60%)”. Also, the 50% effective concentration (EC50) (read-out: Ent. B EC50) is below 1000 nM. As to `Cc1cccc(C)c1-c1cc2nc(n1)NS(=O)(=O)c1cccc(c1)C(=O)N([C@H]1C[C@]3(C[C@@H](N)C3)C1)[C@H](CC1(C(F)(F)F)CC1)CO2` (stereo partly drawn) [Compound 80, (R)-6-((2S,4s,6S)-6-Aminospiro[3.3]heptan-2-yl)-1^6-(2,6-dimethylphenyl)-7-((1-(trifluoromethyl)cyclopropyl)methyl)-9-oxa-3-thia-2,6-diaza-1(2,4)-pyrimidina-4(1,3)-benzenacyclononaphan-5-one 3,3-dioxide], the “Ent. B Max Activity (%)” value (Table 9) is on record as “+++ (+++ is >60%)”. For the same compound, the EC50 (Table 9, read-out: Ent. B EC50) is below 1000 nM. Turning to `COC(=O)N1CC2(CC(N3C(=O)c4cccc(c4)S(=O)(=O)Nc4nc(cc(-c5c(C)cccc5C)n4)OC[C@H]3CC3(C(F)(F)F)CC3)C2)C1` [Compound 453], for the setting “Table 9”, the “Ent. B Max Activity (%)” value is listed as “+++ (+++ is >60%)”. In addition, the EC50 (Table 9, read-out: Ent. B EC50) was below 1000 nM. Take `Cc1cccc(C)c1-c1cc2nc(n1)NS(=O)(=O)c1cccc(c1)C(=O)N(C1CC3(CCN(C4CCC4)CC3)C1)[C@H](CC(C)C)CO2` [Compound 280]: the “Ent. B Max Activity (%)” value (Table 9) is reported as “+++ (+++ is >60%)”. The 50% effective concentration (EC50) (Table 9, read-out: Ent. B EC50) is below 1000 nM. With `COC(=O)N(C)[C@]1(C)C[C@H](N2C(=O)c3cccc(c3)S(=O)(=O)Nc3nc(cc(-c4c(C)cccc4C)n3)OC[C@H]2CC(C)(C)C)C1` (single isomer, unassigned) [Compound 173], where the note is “Table 10”, the “Ent. B Max Activity (%)” value was “++ (++ is 30-60%)”. Also, the EC50 under setting [1] was below 1000 nM. Regarding `Cc1cccc(C)c1-c1cc2nc(n1)NS(=O)(=O)c1cccc(c1)C(=O)N(C1CC3(C1)CC(C(C)(C)O)C3)[C@H](CC(C)(C)C)CO2` (single isomer, unassigned) [Compound 117], the “Ent. B Max Activity (%)” value (Table 10) is listed as “+++ (+++ is >60%)”. Besides, the EC50 under setting [1] was below 1000 nM. As to `Cc1cccc(C)c1-c1cc2nc(n1)NS(=O)(=O)c1cccc(c1)C(=O)N([C@H]1CCN(C)C1)[C@H](CC(C)C)CO2` (stereo in doubt) [Compound 296], the “Ent. B Max Activity (%)” value is listed as “+++ (+++ is >60%)”. In addition, the 50% effective concentration (EC50) (read-out: Ent. B EC50) is 3000 to 30000 nM. As for `Cc1cccc(C)c1-c1cc2nc(n1)NS(=O)(=O)c1cccc(c1)C(=O)N(C1CC(C)(OC(F)(F)F)C1)[C@H](CC(C)(C)C)CO2` (single isomer, unassigned) [Compound 157], the “Ent. B Max Activity (%)” value (Table 10) is given as “++ (++ is 30-60%)”. Further, the 50% effective concentration (EC50) under setting [1] was below 1000 nM.

Consider `Cc1cccc(C)c1-c1cc2nc(n1)NS(=O)(=O)c1cccc(c1)C(=O)N([C@H]1C[C@]3(C[C@H](NC(=O)OC(C)C)C3)C1)[C@H](CC1(C(F)(F)F)CC1)CO2` (stereo partly drawn) [Compound 79, Isopropyl ((2R,4r,6R)-6-((R)-1^6-(2,6-dimethylphenyl)-3,3-dioxido-5-oxo-7-((1-(trifluoromethyl)cyclopropyl)methyl)-9-oxa-3-thia-2,6-diaza-1(2,4)-pyrimidina-4(1,3)-benzenacyclononaphane-6-yl)spiro[3.3]heptan-2-yl)carbamate], for which the “Ent. B Max Activity (%)” value is “+++ (+++ is >60%)”. In addition, the concentration giving a half-maximal response (EC50) (read-out: Ent. B EC50) is below 1000 nM. For `Cc1cccc(C)c1-c1cc2nc(n1)NS(=O)(=O)c1cccc(c1)C(=O)N([C@H]1C[C@]3(C[C@H](N(C)C(=O)OC(C)C)C3)C1)[C@H](CC1(C(F)(F)F)CC1)CO2` (stereo partly shown) [Compound 271], the “Ent. B Max Activity (%)” value (Table 9) was “+++ (+++ is >60%)”. Moreover, the EC50 (Table 9, read-out: Ent. B EC50) was below 1000 nM. In the case of `[H][C@]1(N2C(=O)c3cccc(c3)S(=O)(=O)Nc3nc(cc(-c4c(C)cccc4C)n3)OC[C@H]2CC(C)(C)C)C[C@@]2(C[C@H](C(=O)N(C)C)C2)C1` (single isomer, unassigned) [Compound 115], the “Ent. B Max Activity (%)” value (Table 10) was “+++ (+++ is >60%)”. Further, the EC50 under setting [1] was below 1000 nM.

In the case of `Cc1cccc(C)c1-c1cc2nc(n1)NS(=O)(=O)c1cc(n(C)n1)C(=O)N(C1CC3(C1)CC(C(C)(C)O)C3)[C@H](CC(C)(C)C)CO2` (stereo partly shown) [Compound 436], the “Ent. B Max Activity (%)” value (Table 10) is recorded as “+++ (+++ is >60%)”. Under setting [1], the 50% effective concentration (EC50) was below 1000 nM. In the case of `Cc1cccc(C)c1-c1cc2nc(n1)NS(=O)(=O)c1cccc(c1)C(=O)N(C1CC(N3CCCC3=O)C1)[C@H](CC(C)C)CO2` (stereo partly shown) [Compound 369], for the setting “Table 10”, the “Ent. B Max Activity (%)” value was “++ (++ is 30-60%)”. Under setting [1], the EC50 is below 1000 nM. For the compound `Cc1cccc(C)c1-c1cc2nc(n1)NS(=O)(=O)c1cccc(c1)C(=O)N(C1CC3(CCN(CCOC(C)C)CC3)C1)[C@H](CC(C)C)CO2` [Compound 300], the EC50 (read-out: Ent. B EC50) was below 1000 nM. For the compound `CCC(=O)N[C@H]1C[C@@]2(C1)C[C@H](N1C(=O)c3cccc(c3)S(=O)(=O)Nc3nc(cc(-c4c(C)cccc4C)n3)OC[C@H]1CC1(C(F)(F)F)CC1)C2` (stereo partly shown) [Compound 248], the “Ent. B Max Activity (%)” value (Table 10) is “+++ (+++ is >60%)”. For the same compound, the concentration giving a half-maximal response (EC50) under setting [1] is below 1000 nM. As to `CO[C@H]1C[C@@H](N2C(=O)c3cccc(c3)S(=O)(=O)Nc3nc(cc(-c4c(C)cccc4C)n3)OC[C@H]2CC(C)(C)C)C1` (single isomer, unassigned) [Compound 150], the “Ent. B Max Activity (%)” value is “+++ (+++ is >60%)”. For the same compound, for the setting “read-out: Ent. B EC50”, the EC50 was below 1000 nM. For `Cc1cccc(C)c1-c1cc2nc(n1)NS(=O)(=O)c1cccc(c1)C(=O)N(c1cnn(CC(C)C)c1)[C@H](CC(C)(C)C)CO2` [Compound 229], for the setting “Table 10”, the “Ent. B Max Activity (%)” value is “+++ (+++ is >60%)”. Under setting [1], the half-maximal effective concentration (EC50) is below 1000 nM. Take `Cc1cccc(C)c1-c1cc2nc(n1)NS(=O)(=O)c1cccc(c1)C(=O)N(C1CN(C(=O)OC(C)C)C(C)(C)C1)[C@H](CC(C)C)CO2` (stereo partly drawn) [Compound 110, Propan-2-yl 4-[(11R)-6-(2,6-dimethylphenyl)-11-(2-methylpropyl)-2,2,13-trioxo-9-oxa-2λ^6-thia-3,5,12,19-tetraazatricyclo[12.3.1.14,8]nonadeca-1(17),4(19),5,7,14(18),15-hexaen-12-yl]-2,2-dimethylpyrrolidine-1-carboxylate]: for the setting “Table 9”, the “Ent. B Max Activity (%)” value is reported as “+++ (+++ is >60%)”. In addition, the EC50 (Table 9, read-out: Ent. B EC50) is below 1000 nM.
